Structures are written as SMILES. Structures can show the parent of a compound that is named as a salt. Some results are limits rather than exact numbers.

The target of the experiment is T1, ATM (Homo sapiens, UniProt Q13315).
T1 construct: detecting phosphorylation of Chk2 in a human non-small cell lung cancer cell line NCI-H460 (ATCC company); host or cells: NCI-H460 human non-small cell lung cancer cells
T1 sequence (Q13315 whole entry): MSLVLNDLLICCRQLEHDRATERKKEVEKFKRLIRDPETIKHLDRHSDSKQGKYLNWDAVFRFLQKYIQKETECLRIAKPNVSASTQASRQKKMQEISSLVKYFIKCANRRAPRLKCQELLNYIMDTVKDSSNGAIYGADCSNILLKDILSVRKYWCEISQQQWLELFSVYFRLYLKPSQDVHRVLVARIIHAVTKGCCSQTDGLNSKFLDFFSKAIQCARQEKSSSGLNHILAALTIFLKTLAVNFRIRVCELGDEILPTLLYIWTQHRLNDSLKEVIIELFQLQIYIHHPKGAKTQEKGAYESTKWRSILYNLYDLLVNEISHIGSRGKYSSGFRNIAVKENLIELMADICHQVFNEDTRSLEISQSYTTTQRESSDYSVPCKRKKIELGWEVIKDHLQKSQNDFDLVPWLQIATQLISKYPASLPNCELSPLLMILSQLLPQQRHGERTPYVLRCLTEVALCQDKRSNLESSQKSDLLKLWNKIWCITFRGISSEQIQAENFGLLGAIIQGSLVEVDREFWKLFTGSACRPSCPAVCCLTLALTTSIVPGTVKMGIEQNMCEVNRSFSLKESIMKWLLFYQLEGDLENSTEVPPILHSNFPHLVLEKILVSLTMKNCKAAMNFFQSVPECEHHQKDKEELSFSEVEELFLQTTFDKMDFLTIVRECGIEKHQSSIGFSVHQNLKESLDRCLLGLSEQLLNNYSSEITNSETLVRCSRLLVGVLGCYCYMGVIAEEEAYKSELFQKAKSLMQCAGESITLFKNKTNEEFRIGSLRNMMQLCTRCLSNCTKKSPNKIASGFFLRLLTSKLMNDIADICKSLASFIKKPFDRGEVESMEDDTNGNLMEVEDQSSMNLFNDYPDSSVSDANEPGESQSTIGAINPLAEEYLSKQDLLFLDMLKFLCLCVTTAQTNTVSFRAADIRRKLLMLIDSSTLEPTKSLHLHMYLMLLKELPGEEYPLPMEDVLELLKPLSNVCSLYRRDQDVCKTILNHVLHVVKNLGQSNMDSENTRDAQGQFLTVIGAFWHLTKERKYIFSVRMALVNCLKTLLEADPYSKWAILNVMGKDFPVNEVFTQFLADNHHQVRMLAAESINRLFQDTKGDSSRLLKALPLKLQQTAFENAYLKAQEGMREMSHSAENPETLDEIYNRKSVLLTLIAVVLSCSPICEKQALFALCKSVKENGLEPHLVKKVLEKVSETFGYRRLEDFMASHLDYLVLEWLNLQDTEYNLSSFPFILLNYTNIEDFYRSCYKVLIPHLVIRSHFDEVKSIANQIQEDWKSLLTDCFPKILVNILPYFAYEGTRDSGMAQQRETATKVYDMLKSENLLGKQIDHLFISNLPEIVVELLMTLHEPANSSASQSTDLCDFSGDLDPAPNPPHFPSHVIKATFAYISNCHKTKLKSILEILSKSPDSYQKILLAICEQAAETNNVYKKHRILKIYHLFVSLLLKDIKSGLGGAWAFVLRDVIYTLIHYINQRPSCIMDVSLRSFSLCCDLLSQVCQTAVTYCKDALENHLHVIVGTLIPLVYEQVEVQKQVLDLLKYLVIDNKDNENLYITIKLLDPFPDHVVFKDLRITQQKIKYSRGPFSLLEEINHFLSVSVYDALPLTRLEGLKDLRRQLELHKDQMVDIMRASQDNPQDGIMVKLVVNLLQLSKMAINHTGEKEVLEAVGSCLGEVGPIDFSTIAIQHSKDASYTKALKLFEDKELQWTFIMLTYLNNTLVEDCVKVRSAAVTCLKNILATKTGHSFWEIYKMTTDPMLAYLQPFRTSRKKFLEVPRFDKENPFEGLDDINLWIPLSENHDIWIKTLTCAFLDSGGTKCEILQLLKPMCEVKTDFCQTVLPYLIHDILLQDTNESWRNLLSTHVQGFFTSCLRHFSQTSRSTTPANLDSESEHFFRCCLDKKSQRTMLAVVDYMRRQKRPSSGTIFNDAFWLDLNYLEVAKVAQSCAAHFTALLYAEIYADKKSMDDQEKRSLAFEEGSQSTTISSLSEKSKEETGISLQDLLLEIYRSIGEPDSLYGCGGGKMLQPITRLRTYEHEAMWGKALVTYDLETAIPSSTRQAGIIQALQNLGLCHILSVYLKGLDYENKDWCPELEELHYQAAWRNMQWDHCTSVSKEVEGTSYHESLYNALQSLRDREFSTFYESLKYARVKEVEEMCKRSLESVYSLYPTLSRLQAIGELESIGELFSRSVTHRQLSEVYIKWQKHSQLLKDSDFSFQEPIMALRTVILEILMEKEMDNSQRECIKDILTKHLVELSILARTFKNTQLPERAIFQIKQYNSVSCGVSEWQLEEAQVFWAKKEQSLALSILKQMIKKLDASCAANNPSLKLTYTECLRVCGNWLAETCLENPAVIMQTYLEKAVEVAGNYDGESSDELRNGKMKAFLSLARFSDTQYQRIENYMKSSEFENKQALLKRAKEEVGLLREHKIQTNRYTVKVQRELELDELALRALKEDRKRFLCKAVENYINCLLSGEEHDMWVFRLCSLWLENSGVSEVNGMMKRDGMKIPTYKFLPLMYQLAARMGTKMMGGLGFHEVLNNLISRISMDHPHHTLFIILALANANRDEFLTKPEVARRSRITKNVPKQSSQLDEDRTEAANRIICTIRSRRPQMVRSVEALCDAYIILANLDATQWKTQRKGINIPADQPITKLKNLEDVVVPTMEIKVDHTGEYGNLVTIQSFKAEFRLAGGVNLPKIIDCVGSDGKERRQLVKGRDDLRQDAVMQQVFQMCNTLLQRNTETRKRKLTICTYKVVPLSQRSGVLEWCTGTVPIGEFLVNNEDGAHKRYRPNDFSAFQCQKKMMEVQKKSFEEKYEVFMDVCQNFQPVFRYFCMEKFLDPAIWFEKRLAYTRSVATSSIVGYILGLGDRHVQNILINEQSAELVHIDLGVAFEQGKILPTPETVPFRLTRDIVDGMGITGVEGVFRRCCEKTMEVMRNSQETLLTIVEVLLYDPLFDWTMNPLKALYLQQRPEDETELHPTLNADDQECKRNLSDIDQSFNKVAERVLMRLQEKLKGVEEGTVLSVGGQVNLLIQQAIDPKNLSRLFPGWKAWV
Description: ATM inhibition test (phosphorylation of Chk2 generated by ionizing radiation, AlphaScreen SureFire). In kind it is cell-based. The following applies: phosphorylated Chk2 in NCI-H460 cells, ionizing radiation 8Gy, 1 hour after test compound treatment; read-out: ATM inhibitory activity. The method in brief: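 In NCI-H460 cells, radiation-triggered Chk2 phosphorylation (8Gy, 1 h) is detected by AlphaScreen SureFire following 1 h compound exposure.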
On the technique in general: In Alpha technology, singlet oxygen from a donor bead excites a nearby acceptor bead.
Regarding `CN1CCN(c2cccc(CNc3ccc4c(c3)Sc3cccc(-c5cc(N6CCOCC6)cc(=O)[nH]5)c3S4)n2)CC1` [Example 1-12-33, 6-(7-(((6-(4-Methylpiperazin-1-yl)pyridin-2-yl)methyl)amino)thianthren-1-yl)-4-morpholino pyridin-2 (1H)-one], the IC50 was 100 to 500 nM.

Consider `CC(C)(C)OC(=O)N1CCC(C#N)(Nc2ccc3c(c2)Cc2cccc(-c4cc(N5CCOCC5)cc(=O)[nH]4)c2O3)CC1` [Example 2-26, tert-butyl 4-cyano-4-((5-(4-morpholino-6-oxo-1,6-dihydropyridin-2-yl)-9H-xanthen-2-yl)amino)piperidine-1-carboxylate], for which the IC50 lay in the range of 500 to 2000 nM. Regarding `CC(C(=O)Nc1ccc2c(c1)Sc1cccc(-c3cc(N4CCOCC4)cc(=O)[nH]3)c1S2)N1CCOCC1` (stereo not shown) [Example 1-8, 2-Morpholino-N-(6-(4-morpholino-6-oxo-1,6-dihydropyridin-2-yl)thianthren-2-yl)propanamide], the IC50 was 500 to 2000 nM.

For the compound `CNCCC(Nc1ccc2c(c1)Sc1cccc(-c3cc(N4CCOCC4)cc(=O)[nH]3)c1S2)c1cccc(C)n1` (stereo not shown) [Example 1-20-12, 6-(7-((3-(Methylamino)-1 (6-methyl pyridin-2-yl)propyl)amino)thianthren-1-yl)-4-morpholino pyridin-2 (1H)-one], the IC50 was in the range of 100 to 500 nM. In the case of `O=c1cc(N2CCOCC2)cc(-c2cccc3c2Sc2ccc(NC4CCCN(C5COC5)C4)cc2S3)[nH]1` (stereo not shown) [Example 1-24-6, 4-Morpholino-6-(7-((1-(oxetan-3-yl)piperidin-3-yl)amino)thianthren-1-yl) pyridin-2(1H)-one], the IC50 fell in the range of 100 to 500 nM. On to `CCCC(Nc1ccc2c(c1)Sc1cccc(-c3cc(N4CCOCC4)cc(=O)[nH]3)c1S2)[C@H](C)N1CCOCC1` (stereo partly drawn) [Example 1-21-1, 6-(7-(((2S)-2-morpholinohexan-3-yl)amino)thianthren-1-yl)-4-morpholinopyridin-2(1H)-one], for which the IC50 lay in the range of 100 to 500 nM. Regarding `COc1ccc(CCN2CCC(Nc3ccc4c(c3)Cc3ccnc(-c5cc(N6CCOCC6)cc(=O)[nH]5)c3O4)CC2)cc1` [Example 2-41-5, 6-(7-((1-(4-Methoxyphenethyl)piperidin-4-yl)amino)-5H-chromeno[2,3-c]pyridin-1-yl)-4-morpholino pyridin-2(1H)-one], the IC50 lay in the range of 100 to 500 nM. Take `Nc1ccc2c(c1)CCc1cccc(-c3cc(N4CCOCC4)cc(=O)[nH]3)c1O2` [Example 2-50, 6-(8-Amino-10,11-dihydrodibenz[b,f]oxepin-4-yl)-4-morpholinopyridin-2(1H)-one]: the IC50 was in the range of 500 to 2000 nM. As to `Cc1ccc(C(Nc2ccc3c(c2)Sc2cccc(-c4cc(N5CCOCC5)cc(=O)[nH]4)c2S3)C2CNCCO2)nc1` (single isomer, unassigned) [Example 1-55-1, 6-(7-(((5-methylpyridin-2-yl)(morpholin-2-yl)methyl)amino)thianthren-1-yl)-4-morpholinopyridin-2(1H)-one], the IC50 was below 100 nM. With `COc1ncc(C(C)Nc2ccc3c(c2)Cc2cccc(-c4cc(N5CCOCC5)cc(=O)[nH]4)c2O3)cn1` (stereo not shown) [Example 2-14-55, 6-(7-((1-(2-Methoxypyrimidin-5-yl)ethyl)amino)-9H-xanthen-4-yl)-4-morpholino pyridin-2 (1H)-one], the IC50 was in the range of 100 to 500 nM. As for `CC(Nc1ccc2c(c1)Sc1cccc(-c3cc(N4CCOCC4)cc(=O)[nH]3)c1S2)c1cc(C#N)ncn1` (single isomer, unassigned) [Example 1-12-146-2, 6-(1-((6-(4-morpholino-6-oxo-1,6-dihydropyridin-2-yl)thianthren-2-yl)amino)ethyl)pyrimidine-4-carbonitrile], the IC50 was 100 to 500 nM. As to `COc1cncc(CN2CCC(Nc3ccc4c(c3)Cc3cccc(-c5cc(N6CCOCC6)cc(=O)[nH]5)c3O4)CC2)c1` [Example 2-28-2, 6-(7-((1-((5-Methoxypyridin-3-yl)methyl)piperidin-4-yl)amino)-9H-xanthen-4-yl)-4-morpholino pyridin-2(1H)-one], the IC50 is 500 to 2000 nM. With `Cc1ccc(C(CCN2CCCCC2)Nc2ccc3c(c2)Sc2cccc(-c4cc(N5CCOCC5)cc(=O)[nH]4)c2S3)nc1` (single isomer, unassigned) [Example 1-51-6, 6-(7-((1-(5-Methylpyridin-2-yl)-3-(piperidin-1-yl)propyl)amino)thianthren-1-yl)-4-morpholino pyridin-2(1H)-one], the IC50 was below 100 nM. Then `Cc1cccc(C(C)Nc2ccc3c(c2)Cc2ccnc(-c4cc(N5CCOCC5)cc(=O)[nH]4)c2O3)n1` (stereo not shown) [Example 2-42-6, 6-(7-((1-(6-Methylpyridin-2-yl)ethyl)amino)-5H-chromeno[2,3-c]pyridin-1-yl)-4-morpholinopyridin-2(1H)-one], with 100 to 500 nM; and `COc1cncc(CNc2ccc3c(c2)Cc2cccc(-c4cc(N5CCOCC5)cc(=O)[nH]4)c2N3C)c1` [Example 7, 6-(7-(((5-Methoxypyridin-3-yl)methyl)amino)-10-methyl-9,10-dihydroacridin-4-yl)-4-morpholinopyridin-2(1H)-one], with 500 to 2000 nM; and `O=c1cc(N2CCOCC2)cc(-c2cccc3c2Sc2ccc(NC4CCCN(C5CCOCC5)C4)cc2S3)[nH]1` (stereo not shown) [Example 1-24-7, 4-Morpholino-6-(7-((1-(tetrahydro-2H-pyran-4-yl)piperidin-3-yl)amino)thianthren-1-yl)pyridin-2 (1H)-one], with 100 to 500 nM.

In the case of `CCC(C)C(Nc1ccc2c(c1)Sc1cccc(-c3cc(N4CCOCC4)cc(=O)[nH]3)c1S2)c1ccc(C)cn1` (stereo not shown) [Example 1-12-122, 6-(7-((2-Methyl-1-(5-methylpyridin-2-yl)butyl)amino)thianthren-1-yl)-4-morpholino pyridin-2(1H)-one], the IC50 fell in the range of 100 to 500 nM. With `CCOC(=O)c1ccc(CNc2ccc3c(c2)Sc2cccc(-c4cc(N5CCOCC5)cc(=O)[nH]4)c2S3)nc1` [Example 1-12-112, Ethyl 6-(((6-(4-morpholino-6-oxo-1,6-dihydropyridin-2-yl)thianthren-2-yl)amino)methyl)nicotinate], the IC50 fell in the range of 100 to 500 nM. On to `O=c1cc(N2CCOCC2)cc(-c2cccc3c2Oc2ccc(NCc4cncc(-c5cccnc5)c4)cc2C3)[nH]1` [Example 2-2-57, 6-(7-(([3,3′-Bipyridin]-5-ylmethyl)amino)-9H-xanthen-4-yl)-4-morpholino pyridin-2 (1H)-one], for which the IC50 was in the range of 100 to 500 nM. Regarding `Cc1cccc(C(CNC(=O)OC(C)(C)C)Nc2ccc3c(c2)Cc2cccc(-c4cc(N5CCOCC5)cc(=O)[nH]4)c2O3)n1` (stereo not shown) [Example 2-14-46], the IC50 is 100 to 500 nM. With `COCC(CN1CCCCC1)Nc1ccc2c(c1)Sc1cccc(-c3cc(N4CCOCC4)cc(=O)[nH]3)c1S2` (stereo not shown) [Example 1-17-2, 6-(7-((1-Methoxy-3-(piperidin-1-yl)propan-2-yl)amino)thianthren-1-yl)-4-morpholinopyridin-2(1H)-one], the IC50 was 100 to 500 nM. `Cc1cncc(CNc2ccc3c(c2)Sc2cccc(-c4cc(N5CCOCC5)cc(=O)[nH]4)c2S3)n1` [Example 1-12-60, 6-(7-(((6-Methylpyrazin-2-yl)methyl)amino)thianthren-1-yl)-4-morpholino pyridin-2(1H)-one]: the IC50 lay in the range of 100 to 500 nM. Consider `O=C(CN1CCCOCC1)Nc1ccc2c(c1)Sc1cccc(-c3cc(N4CCOCC4)cc(=O)[nH]3)c1S2` [Example 1-7-3, N-(6-(4-morpholino-6-oxo-1,6-dihydropyridin-2-yl)thianthren-2-yl)-2-(1,4-oxazepan-4-yl)acetamide], for which the IC50 lay within 500 to 2000 nM. As for `CC(C)CC(Nc1ccc2c(c1)Sc1cccc(-c3cc(N4CCOCC4)cc(=O)[nH]3)c1S2)[C@H](C)N` (stereo partly drawn) [Example 1-20-4, 6-(7-(((2S)-2-Amino-5-methylhexan-3-yl)amino)thianthren-1-yl)-4-morpholino pyridin-2(1H)-one], the IC50 is 500 to 2000 nM.

Regarding `COCCNCCC(Nc1ccc2c(c1)Sc1cccc(-c3cc(N4CCOCC4)cc(=O)[nH]3)c1S2)c1cccc(C)n1` (stereo not shown) [Example 1-20-10, 6-(7-((3-((2-Methoxyethyl)amino)-1-(6-methylpyridin-2-yl)propyl)amino)thianthren-1-yl)-4-morpholino pyridin-2 (1H)-one], the IC50 was 100 to 500 nM.

`CC(C)Oc1cncc(CNc2ccc3c(c2)Cc2cccc(-c4cc(N5CCOCC5)cc(=O)[nH]4)c2O3)c1` [Example 2-2-65, 6-(7-(((5-Isopropoxypyridin-3-yl)methyl)amino)-9H-xanthen-4-yl)-4-morpholino pyridin-2(1H)-one]: the IC50 was in the range of 100 to 500 nM. As for `O=c1cc(N2CCOCC2)cc(-c2cccc3c2Oc2ccc(NCc4ccc(OC5CCOCC5)nc4)cc2C3)[nH]1` [Example 2-2-4, 4-Morpholino-6-(7-(((6-((tetrahydro-2H-pyran-4-yl)oxy)pyridin-3-yl)methyl)amino)-9H-xanthen-4-yl)pyridin-2 (1H)-one], the IC50 fell in the range of 500 to 2000 nM. In the case of `Nc1ccc(CCN2CCC(Nc3ccc4c(c3)Cc3cccc(-c5cc(N6CCOCC6)cc(=O)[nH]5)c3O4)CC2)cc1` [Example 2-31, hydrochloride of 6-(7-((1-(4-aminophenethyl)piperidin-4-yl)amino)-9H-xanthen-4-yl)-4-morpholinopyridin-2(1H)-one] it was 100 to 500 nM; in that of `O=c1cc(N2CCOCC2)cc(-c2cccc3c2Oc2ccccc2S3)[nH]1` [Example 4-12, 4-Morpholino-6-(phenoxathiin-4-yl)pyridin-2(1H)-one], 500 to 2000 nM. For `O=c1cc(N2CCOCC2)cc(-c2cccc3c2Sc2ccc(NCc4cnccn4)cc2C3)[nH]1` [Example 3-8-5, 4-Morpholino-6-(7-((pyrazin-2-ylmethyl)amino)-9H-thioxanthen-4-yl)pyridin-2 (1H)-one], the IC50 fell in the range of 500 to 2000 nM. Then `O=c1cc(N2CCOCC2)cc(-c2cccc3c2Oc2ccc(NC4CCN(CCc5ccc(CO)cc5)CC4)cc2C3)[nH]1` [Example 2-30-17, 6-(7-((1-(4-(Hydroxymethyl)phenethyl)piperidin-4-yl)amino)-9H-xanthen-4-yl)-4-morpholino pyridin-2 (1H)-one], with 100 to 500 nM.

These data come from patent publication US9586951B2 (FUJIFILM Corporation, priority 2013, dated 2017).
